In patent publication US20250339409A1, “USES OF PAN BET INHIBITORS” (VYNE THERAPEUTICS INC., priority 2021, published 2025):
Values joined by “and” are separate entries in the source; they are usually repeats but may differ in a detail not shown here. Equal entries are not always repeated.

Test system: bleomycin induced pulmonary fibrosis
Assay: Bleomycin induced pulmonary fibrosis in mice, nebulized treatment: body weight, weight of whole lung, survival
Format: in vivo
Conditions: for Predicted (LS) mean diff., % Change Body Weight, Group 2 Bleo/Veh vs. BETi1 group: Two Way ANOVA; for Predicted (LS) mean diff., % Change Body Weight, Group 2 Bleo/Veh vs. BETi1 group / Mean Diff., Weight of Whole lung, Group 2 Bleo/Veh vs. BETi1 group / Mean Diff., % Change Body Weight, Group 2 Bleo/Veh vs. BETi1 group: Dunnett's; for Mean Diff., Weight of Whole lung, Group 2 Bleo/Veh vs. BETi1 group / Mean Diff., % Change Body Weight, Group 2 Bleo/Veh vs. BETi1 group: One Way ANOVA; for % change in Body Weight Week 1 Compared to Baseline, mean / % change in Body Weight week 2 Compared to Baseline, mean / % change in Body Weight week 3 Compared to Baseline, Mean: group mean; for % change in Body Weight Week 1 Compared to Baseline / % change in Body Weight week 2 Compared to Baseline / % change in Body Weight week 3 Compared to Baseline: individual animals
Procedure: Bleomycin, a […], which acts inter alia by induction of DNA strand breaks.
The Bleomycin induced pulmonary fibrosis in a murine model is used to assess anti-fibrotic and/or anti-inflammatory properties of BETi1 formulations at three concentrations. Fifty C57BL/6 male mice aged 6 to 7 weeks and weighing between 25-30 grams are randomized into five treatment groups (10 mice each): (a) bleomycin induced mice treated with BETi1 at three concentrations (0.06 mg/mL, 0.6 mg/mL and 3 mg/mL); (b) bleomycin induced mice treated with vehicle (control for active) and (c) uninduced mice treated with vehicle (sham) (control for disease).
To generate the morphological and functional aspects of PF, 50 uL bleomycin sulfate in saline per mouse is intranasally dosed on Day 0 (other than for group 1 sham receiving saline). The bleomycin IU conversion to enzyme units (U) is approximately 2 U/mg. For delivery of 4 U/kg in 50 μL, a solution of 2 U/ml (for 25 g mouse) is prepared in 0.9% NaCl.
5 ml of BETi1 solutions at 3 doses, or vehicle and bleomycin concomitantly are delivered once daily for 21 days with a nebulizer based aerosol delivery system (eFlow® rapid Nebuliser System) by inhalation for a period which allows the solutions to be nebulized and up to 2 hours per day. A sham group receives vehicle only. Body weights are recorded on days 1, 7, 14, and 21. Mortality and clinical observations are recorded daily.
On day 21, mice are euthanized by cervical dislocation and the whole lung is dissected and weighed. The chest is wet with alcohol and large scissors are used to open the ribcage. The lungs are removed with fine scissors and forceps, rinsed with PBS and patted dry on gauze.
Investigation of the anti-fibrotic properties of BETi1 composition against TGF-β mediated fibrosis was undertaken in a bleomycin induced murine model mimicking IPF in accordance with the protocol set out in Experimental Method R.

[1] = Week 1, Group 3 Bleo/BETi1 0.06 mg/mL
[2] = Week 1, Group 4 Bleo/BETi1 0.6 mg/mL
[3] = Week 1, Group 5 Bleo/BETi1 3 mg/mL
[4] = Week 2, Group 3 Bleo/BETi1 0.06 mg/mL
[5] = Week 2, Group 4 Bleo/BETi1 0.6 mg/mL
[6] = Week 2, Group 5 Bleo/BETi1 3 mg/mL
[7] = Week 3, Group 3 Bleo/BETi1 0.06 mg/mL
[8] = Week 3, Group 4 Bleo/BETi1 0.6 mg/mL
[9] = Week 3, Group 5 Bleo/BETi1 3 mg/mL

## Cn1cc(-c2cccc(O)c2Oc2ccccc2)c2cc[nH]c2c1=O [BETi1]
0.06 mg/mL and 0.6 mg/mL, vs bleomycin and vehicle
  whole lung weight: slight decrease in lung weight
0.06 mg/mL inhaled, until day 20
  Probability of Survival: 50%
0.6 mg/mL inhaled, until day 20
  Probability of Survival: 81.3%
3 mg/mL inhaled, until day 20
  Probability of Survival: 76.5%
Baseline, Group 3 Bleo/BETi1 0.06 mg/mL
  Predicted (LS) mean diff., % Change Body Weight, Group 2 Bleo/Veh vs. BETi1 group: 0.0875%
Baseline, Group 4 Bleo/BETi1 0.6 mg/mL
  Predicted (LS) mean diff., % Change Body Weight, Group 2 Bleo/Veh vs. BETi1 group: 0.1750%
Baseline, Group 5 Bleo/BETi1 3 mg/mL
  Predicted (LS) mean diff., % Change Body Weight, Group 2 Bleo/Veh vs. BETi1 group: 0.1629%
Group 3 Bleo/BETi1 0.06 mg/mL
  Mean 2 (group mean), Weight of Whole lung: 0.2695
  Weight of Whole lung, Mean: 0.27 grams
  Weight of Whole lung, individual animals: 0.32 grams and 0.28 grams and 0.25 grams and 0.27 grams (3×) and 0.30 grams and 0.19 grams
  Mean Diff., Weight of Whole lung, Group 2 Bleo/Veh vs. BETi1 group: 0.01712
  % change in Body Weight Week 1 Compared to Baseline, mean: −22.10%
  % change in Body Weight week 2 Compared to Baseline, mean: −19.98%
  % change in Body Weight week 3 Compared to Baseline, Mean: −8.83%
  % change in Body Weight Week 1 Compared to Baseline: −37.04% and −20.00% and −39.32% and −11.86% and −37.37% and −3.83% and −26.78% and −31.75% and −37.30% and −38.92% and −35.61% and −25.13% and −14.61% and −18.53% and −13.95% and −12.29%
  % change in Body Weight week 2 Compared to Baseline: −39.35% and −15.35% and −47.44% and −1.27% and −1.28% and −37.16% and −39.04% and −8.22% and −19.83% and −3.26% and −7.63%
  % change in Body Weight week 3 Compared to Baseline: −37.04% and −9.77% and −0.85% and −2.13% and −5.02% and −14.22% and 0.93% and −2.54%
Group 3 Bleo/BETi1 0.06 mg/mL, Day Elapsed 0
  Probability of Survival: 100%
Group 3 Bleo/BETi1 0.06 mg/mL, Day Elapsed 8
  Probability of Survival: 93.75%
Group 3 Bleo/BETi1 0.06 mg/mL, Day Elapsed 9
  Probability of Survival: 81.25%
Group 3 Bleo/BETi1 0.06 mg/mL, Day Elapsed 10
  Probability of Survival: 75%
Group 3 Bleo/BETi1 0.06 mg/mL, Day Elapsed 12
  Probability of Survival: 68.75%
Group 3 Bleo/BETi1 0.06 mg/mL, Day Elapsed 14
  Probability of Survival: 62.5%
Group 3 Bleo/BETi1 0.06 mg/mL, Day Elapsed 18
  Probability of Survival: 56.25%
Group 3 Bleo/BETi1 0.06 mg/mL, Day Elapsed 19
  Probability of Survival: 50%
Group 3 Bleo/BETi1 0.06 mg/mL, Day Elapsed 20
  Probability of Survival: 50%
Group 4 Bleo/BETi1 0.6 mg/mL
  Mean 2 (group mean), Weight of Whole lung: 0.2681
  Weight of Whole lung, Mean: 0.27 grams
  Weight of Whole lung, individual animals: 0.13 grams and 0.31 grams and 0.29 grams and 0.32 grams and 0.37 grams and 0.27 grams and 0.20 grams (2×) and 0.33 grams and 0.34 grams (2×) and 0.18 grams and 0.21 grams
  Mean Diff., Weight of Whole lung, Group 2 Bleo/Veh vs. BETi1 group: 0.01849
  % change in Body Weight Week 1 Compared to Baseline, mean: −21.76%
  % change in Body Weight week 2 Compared to Baseline, mean: −17.12%
  % change in Body Weight week 3 Compared to Baseline, Mean: −13.58%
  % change in Body Weight Week 1 Compared to Baseline: −10.00% and −30.77% and −22.17% and −31.64% and −20.93% and −27.01% and −24.89% and −31.19% and −5.26% and −14.75% and −23.22% and −25.78% and −4.72% and −10.36% and −31.41% and −8.41%
  % change in Body Weight week 2 Compared to Baseline: −8.00% and −33.52% and −16.04% and −27.44% and −32.70% and −21.78% and 0.96% and −18.89% and −16.11% and −23.11% and −0.47% and −0.90% and −39.27% and −2.34%
  % change in Body Weight week 3 Compared to Baseline: −7.50% and −34.62% and −7.55% and −27.91% and −34.12% and −12.89% and 2.39% and −6.45% and −14.69% and −19.56% and −3.30% and −9.91% and −0.47%
Group 4 Bleo/BETi1 0.6 mg/mL, Day Elapsed 0
  Probability of Survival: 100%
Group 4 Bleo/BETi1 0.6 mg/mL, Day Elapsed 10
  Probability of Survival: 87.5%
Group 4 Bleo/BETi1 0.6 mg/mL, Day Elapsed 19
  Probability of Survival: 81.3%
Group 4 Bleo/BETi1 0.6 mg/mL, Day Elapsed 20
  Probability of Survival: 81.3%
Group 5 Bleo/BETi1 3 mg/mL
  Mean 2 (group mean), Weight of Whole lung: 0.2847
  Weight of Whole lung, Mean: 0.28 grams
  Weight of Whole lung, individual animals: 0.31 grams (2×) and 0.33 grams (2×) and 0.30 grams (2×) and 0.23 grams and 0.27 grams and 0.29 grams and 0.34 grams and 0.28 grams and 0.21 grams and 0.22 grams
  Mean Diff., Weight of Whole lung, Group 2 Bleo/Veh vs. BETi1 group: 0.001901
  % change in Body Weight Week 1 Compared to Baseline, mean: −19.36%
  % change in Body Weight week 2 Compared to Baseline, mean: −20.64%
  % change in Body Weight week 3 Compared to Baseline, Mean: −16.74%
  % change in Body Weight Week 1 Compared to Baseline: −26.87% and −23.22% and −36.71% and −15.25% and −13.81% and −12.78% and −17.30% and −34.80% and −28.32% and −27.55% and −24.87% and −34.38% and −26.99% and −11.63% and −10.16% and −15.64% and −21.86%
  % change in Body Weight week 2 Compared to Baseline: −11.45% and −36.97% and −40.10% and −20.18% and 1.43% and −7.05% and −22.16% and −38.24% and −34.07% and −20.81% and −42.92% and −8.37% and −1.07% and −7.11% and −20.47%
  % change in Body Weight week 3 Compared to Baseline: −5.73% and −37.44% and −21.52% and 1.90% and −7.05% and −24.32% and −46.08% and −37.17% and −17.26% and −3.26% and 2.67% and −4.27% and −18.14%
Group 5 Bleo/BETi1 3 mg/mL, Day Elapsed 0
  Probability of Survival: 100%
Group 5 Bleo/BETi1 3 mg/mL, Day Elapsed 12
  Probability of Survival: 88.24%
Group 5 Bleo/BETi1 3 mg/mL, Day Elapsed 19
  Probability of Survival: 76.5%
Group 5 Bleo/BETi1 3 mg/mL, Day Elapsed 20
  Probability of Survival: 76.5%
[1]
  Mean 2 (group mean), % Change Body Weight: −25.27%
  Mean Diff., % Change Body Weight, Group 2 Bleo/Veh vs. BETi1 group: 3.162%
  Predicted (LS) mean diff., % Change Body Weight, Group 2 Bleo/Veh vs. BETi1 group: −0.2812%
[2]
  Mean 2 (group mean), % Change Body Weight: −20.16%
  Mean Diff., % Change Body Weight, Group 2 Bleo/Veh vs. BETi1 group: −1.950%
  Predicted (LS) mean diff., % Change Body Weight, Group 2 Bleo/Veh vs. BETi1 group: 0.1375%
[3]
  Mean 2 (group mean), % Change Body Weight: −22.48%
  Mean Diff., % Change Body Weight, Group 2 Bleo/Veh vs. BETi1 group: 0.3723%
  Predicted (LS) mean diff., % Change Body Weight, Group 2 Bleo/Veh vs. BETi1 group: −0.2048%
[4]
  Mean 2 (group mean), % Change Body Weight: −19.98%
  Mean Diff., % Change Body Weight, Group 2 Bleo/Veh vs. BETi1 group: 1.135%
  Predicted (LS) mean diff., % Change Body Weight, Group 2 Bleo/Veh vs. BETi1 group: 0.3375%
[5]
  Mean 2 (group mean), % Change Body Weight: −17.12%
  Mean Diff., % Change Body Weight, Group 2 Bleo/Veh vs. BETi1 group: −1.732%
  Predicted (LS) mean diff., % Change Body Weight, Group 2 Bleo/Veh vs. BETi1 group: −0.3438%
[6]
  Mean 2 (group mean), % Change Body Weight: −20.64%
  Mean Diff., % Change Body Weight, Group 2 Bleo/Veh vs. BETi1 group: 1.788%
  Predicted (LS) mean diff., % Change Body Weight, Group 2 Bleo/Veh vs. BETi1 group: −0.05257%
[7]
  Mean 2 (group mean), % Change Body Weight: −8.830%
  Mean Diff., % Change Body Weight, Group 2 Bleo/Veh vs. BETi1 group: −4.313%
  Predicted (LS) mean diff., % Change Body Weight, Group 2 Bleo/Veh vs. BETi1 group: −2.409%
[8]
  Mean 2 (group mean), % Change Body Weight: −13.58%
  Mean Diff., % Change Body Weight, Group 2 Bleo/Veh vs. BETi1 group: 0.4395%
  Predicted (LS) mean diff., % Change Body Weight, Group 2 Bleo/Veh vs. BETi1 group: −0.1629%
[9]
  Mean 2 (group mean), % Change Body Weight: −16.74%
  Mean Diff., % Change Body Weight, Group 2 Bleo/Veh vs. BETi1 group: 3.600%
  Predicted (LS) mean diff., % Change Body Weight, Group 2 Bleo/Veh vs. BETi1 group: 0.6601%
